In experiment [1] the target is T1, human EP1 receptor (Homo sapiens, UniProt P34995).
T1 construct: expressed in transfected cells; host or cells: CHO-K1
T1 sequence (P34995 1-402): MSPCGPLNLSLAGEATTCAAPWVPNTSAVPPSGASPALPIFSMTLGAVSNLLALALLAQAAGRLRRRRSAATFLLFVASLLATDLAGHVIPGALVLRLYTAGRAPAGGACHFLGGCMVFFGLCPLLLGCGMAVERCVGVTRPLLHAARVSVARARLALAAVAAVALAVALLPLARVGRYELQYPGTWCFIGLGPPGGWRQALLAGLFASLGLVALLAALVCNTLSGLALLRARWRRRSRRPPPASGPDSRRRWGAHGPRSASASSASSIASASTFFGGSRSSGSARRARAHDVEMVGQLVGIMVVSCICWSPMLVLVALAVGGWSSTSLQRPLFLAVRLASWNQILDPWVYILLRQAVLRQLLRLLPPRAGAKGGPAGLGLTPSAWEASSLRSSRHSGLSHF
Kind of experiment: human EP1 calcium mobilisation assay. Format: cell-based. As to conditions: for Ki: human EP1, CHO-K1 cells, antagonism of PGE2, averages of a number of experiments, read-out: functional pKi value (converted); for IC50: human EP1 calcium mobilisation assay, read-out: pIC50 values (converted). The protocol:
Briefly, the antagonist properties of compounds are assessed by their ability to inhibit the mobilisation of intracellular calcium ([Ca^2+]i) in response to activation of EP1 or EP3 receptors by the natural agonist hormone prostaglandin E2 (PGE2). Increasing concentrations of antagonist reduce the amount of calcium that a given concentration of PGE2 can mobilise. The net effect is to displace the PGE2 concentration-effect curve to higher concentrations of PGE2. The amount of calcium produced is assessed using a calcium-sensitive fluorescent dye such as Fluo-4, AM and a suitable instrument such as a Fluorimetric Imaging Plate Reader (FLIPR). Increasing amounts of [Ca^2+]i produced by receptor activation increase the amount of fluorescence produced by the dye and give rise to an increasing signal. The signal may be detected using the FLIPR instrument and the data generated may be analysed with suitable curve-fitting software.
The human EP1 or EP3 calcium mobilisation assay (hereafter referred to as ‘the calcium assay’) utilises Chinese hamster ovary-K1 (CHO-K1) cells into which a stable (pCIN; BioTechniques 20 (1996): 102-110) vector containing either EP1 or EP3 cDNA has previously been transfected. Cells are cultured in suitable flasks containing culture medium such as DMEM:F-12 supplemented with 10% v/v foetal calf serum, 2 mM L-glutamine, 0.25 mg/ml geneticin, 100 μM flurbiprofen and 10 μg/ml puromycin.
For assay, cells are harvested using a proprietary reagent that dislodges cells such as Versene. Cells are re-suspended in a suitable quantity of fresh culture media for introduction into a 384-well plate. Following incubation for 24 hours at 37° C. the culture media is replaced with a medium containing Fluo-4 and the detergent pluronic acid, and a further incubation takes place. Concentrations of compounds are then added to the plate in order to construct concentration-effect curves. This may be performed on the FLIPR in order to assess the agonist properties of the compounds. Concentrations of PGE2 are then added to the plate in order to assess the antagonist properties of the compounds.
The data so generated may be analysed by means of a computerised curve-fitting routine. The concentration of compound that elicits a half-maximal inhibition of the calcium mobilisation induced by PGE2 (pIC50) may then be estimated.

Experiment [2] has as its target T2, human prostanoid EP1 receptor (Homo sapiens, UniProt P34995).
T2 construct: expressed in transfected cells; host or cells: CHO-K1 (membrane fraction)
T2 sequence (P34995 1-402): T1 sequence (P34995 1-402)
Kind of experiment: Binding assay for the human prostanoid EP1 receptor (competition with [3H]-PGE2). As to conditions: [3H]-PGE2 competition, human EP1, CHO-K1 membranes; averages of a number of experiments; read-out: pIC50 value (converted). The protocol:
Competition assay using [^3H]-PGE2.
Compound potencies are determined using a radioligand binding assay. In this assay compound potencies are determined from their ability to compete with tritiated prostaglandin E2 ([^3H]-PGE2) for binding to the human EP1 receptor.
This assay utilises Chinese hamster ovary-K1 (CHO-K1) cells into which a stable vector containing the EP1 cDNA has previously been transfected. Cells are cultured in suitable flasks containing culture medium such as DMEM:F-12 supplemented with 10% v/v foetal calf serum, 2 mM L-glutamine, 0.25 mg/ml geneticin, 10 μg/ml puromycin and 10 μM indomethacin.
Cells are detached from the culture flasks by incubation in calcium and magnesium free phosphate buffered saline containing 1 mM disodium ethylenediaminetetraacetic acid (Na2EDTA) and 10 μM indomethacin for 5 min. The cells are isolated by centrifugation at 250×g for 5mins and suspended in an ice cold buffer such as 50 mM Tris, 1 mM Na2EDTA, 140 mM NaCl, 10 μM indomethacin (pH 7.4). The cells are homogenised using a Polytron tissue disrupter (2×10 s burst at full setting), centrifuged at 48,000×g for 20mins and the pellet containing the membrane fraction is washed (optional) three times by suspension and centrifugation at 48,000×g for 20mins. The final membrane pellet is suspended in an assay buffer such as 10 mM 2-[N-morpholino]ethanesulphonic acid, 1 mM Na2EDTA, 10 mM MgCl2 (pH 6). Aliquots are frozen at −80° C. until required.
For the binding assay the cell membranes, competing compounds and [^3H]-PGE2 (3 nM final assay concentration) are incubated in a final volume of 100 μl for 30 min at 30° C. All reagents are prepared in assay buffer. Reactions are terminated by rapid vacuum filtration over GF/B filters using a Brandell cell harvester. The filters are washed with ice cold assay buffer, dried and the radioactivity retained on the filters is measured by liquid scintillation counting in Packard TopCount scintillation counter.
The data are analysed using non linear curve fitting techniques to determine the concentration of compound producing 50% inhibition of specific binding (IC50).

The structures appear in SMILES notation. Counter-ions that a name gives are not always drawn. Some results are limits rather than exact numbers.

`O=C(Cc1ccccc1)Nc1cccc(Cc2cc(Cl)ccc2OCc2ccccc2)n1` [Example 2, N-[6-({5-Chloro-2-[(phenylmethyl)oxy]phenyl}methyl)-2-pyridinyl]-2-phenylacetamide]: in experiment [1], the Ki is no more than 10 µM.
As to `O=C(Nc1cccc(Cc2cc(Cl)ccc2OCc2ccccc2)n1)c1ccccc1` [Example 3, N-[6-({5-Chloro-2-[(phenylmethyl)oxy]phenyl}methyl)-2-pyridinyl]benzamide], the Ki in experiment [1] is no more than 0.316 µM.
Regarding `O=C(Nc1ccccn1)c1cccc(Cc2cc(Cl)ccc2OCc2ccccc2)n1` [Example 6, 6-({5-Chloro-2-[(phenylmethyl)oxy]phenyl}methyl)-N-2-pyridinyl-2-pyridinecarboxamide], the IC50 in experiment [1] was greater than 10 µM.
In the case of `O=C(NCc1ccccn1)c1cccc(Cc2cc(Cl)ccc2OCc2ccccc2)n1` [Example 7, 6-({5-Chloro-2-[(phenylmethyl)oxy]phenyl}methyl)-N-(2-pyridinylmethyl)-2-pyridinecarboxamide], the Ki in experiment [1] was no more than 0.316 µM.
For the compound `O=C(Nc1ccccc1)c1cccc(Cc2cc(Cl)ccc2OCc2ccccc2)n1` [Example 10, 6-({5-Chloro-2-[(phenylmethyl)oxy]phenyl}methyl)-N-phenyl-2-pyridinecarboxamide], the IC50 in experiment [1] is greater than 10 µM.
Take `O=C(NCc1ccccc1)c1cccc(Cc2cc(Cl)ccc2OCc2ccccc2)n1` [Example 11, 6-({5-Chloro-2-[(phenylmethyl)oxy]phenyl}methyl)-N-(phenylmethyl)-2-pyridinecarboxamide]: the IC50 in experiment [1] is greater than 10 µM.
On the same count and under the same terms, the figure for `O=C(Nc1cccc(Cc2cc(Cl)ccc2OCc2ccccc2)n1)c1cccnc1` [Example 16, N-[6-({5-Chloro-2-[(phenylmethyl)oxy]phenyl}methyl)-2-pyridinyl]-3-pyridinecarboxamide] is greater than 10 µM.
Take `O=C(Nc1cccc(Cc2cc(Cl)ccc2OCc2ccccc2)n1)C1CCCO1` (centres unmarked) [Example 17, N-[6-({5-Chloro-2-[(phenylmethyl)oxy]phenyl}methyl)-2-pyridinyl]tetrahydro-2-furancarboxamide]: in experiment [2], the IC50 is no more than 0.1 µM.
On the same count and under the same terms, the figure for `O=C(Nc1cccc(Cc2cc(Cl)ccc2OCc2ccccc2)n1)C1CCOC1` (centres unmarked) [Example 18, N-[6-({5-Chloro-2-[(phenylmethyl)oxy]phenyl}methyl)-2-pyridinyl]tetrahydro-3-furancarboxamide] is no more than 0.1 µM.
As for `CC(C)COc1ccc(Cl)cc1Cc1cccc(-c2nc3cnc4ccccc4c3[nH]2)n1` [Example 24, 2-[6-({5-Chloro-2-[(2-methylpropyl)oxy]phenyl}methyl)-2-pyridinyl]-1H-imidazo[4,5-c]quinoline hydrochloride], the Ki in experiment [1] is no more than 0.316 µM.
The same measure, in the same setting: next, `CN1CCN(c2ccc3nc(-c4cccc(Cc5cc(Cl)ccc5OCc5ccccc5)n4)[nH]c3c2)CC1` [Example 26, 2-[6-({5-Chloro-2-[(phenylmethyl)oxy]phenyl}methyl)-2-pyridinyl]-5-(4-methyl-1-piperazinyl)-1H-benzimidazole Hydrochloride]: no more than 10 µM; `Fc1cccc2[nH]c(-c3cccc(Cc4cc(Cl)ccc4OCc4ccccc4)n3)nc12` [Example 32, 2-[6-({5-Chloro-2-[(phenylmethyl)oxy]phenyl}methyl)-2-pyridinyl]-4-fluoro-1H-benzimidazolehydrochioride]: no more than 10 µM.
With `Fc1cc2nc(-c3cccc(Cc4cc(Cl)ccc4OCc4ccccc4)n3)[nH]c2cc1F` [Example 37, 2-[6-({5-Chloro-2-[(phenylmethyl)oxy]phenyl}methyl)-2-pyridinyl]-5,6-difluoro-1H-benzimidazolehydrochloride], in experiment [1], the IC50 was greater than 10 µM.
With `Clc1ccc(OCc2ccccc2)c(Cc2cccc(-c3nc4cnccc4[nH]3)n2)c1` [Example 38, 2-[6-({5-Chloro-2-[(phenylmethyl)oxy]phenyl}methyl)-2-pyridinyl]-1H-imidazo[4,5-c]pyridinehydrochloride], the Ki in experiment [1] was no more than 0.316 µM.
Regarding `Fc1ccc2nc(-c3cccc(Cc4cc(Cl)ccc4OCc4ccccc4)n3)[nH]c2c1F` [Example 40, 2-[6-({5-Chloro-2-[(phenylmethyl)oxy]phenyl}methyl)-2-pyridinyl]-4,5-difluoro-1H-benzimidazolehydrochloride], the IC50 in experiment [1] is greater than 10 µM.
On to `CC(C)COc1ccc(Cl)cc1Cc1cccc(-c2ncc[nH]2)n1` [Example 42, 2-({5-Chloro-2-[(2-methylpropyl)oxy]phenyl}methyl)-6-(1H-imidazol-2-yl)pyridine], for which the IC50 in experiment [2] was no more than 0.1 µM.
Turning to `CC(C)COc1ccc(Cl)cc1Cc1cccc(NC(=O)c2ccc(CN3CCOCC3)cc2)n1` [Example 45, N-[6-({5-Chloro-2-[(2-methylpropyl)oxy]phenyl}methyl)-2-pyridinyl]-4-(4-morpholinylmethyl)benzamide Hydrochloride], the Ki in experiment [1] was no more than 0.316 µM.
Same read-out and setting: next, `CC(C)COc1ccc(Cl)cc1Cc1cccc(NC(=O)c2ccc(CN3CCCC3)cc2)n1` [Example 46, N-[6-({5-Chloro-2-[(2-methylpropyl)oxy]phenyl}methyl)-2-pyridinyl]-4-(1-pyrrolidinylmethyl)benzamidehydrochloride]: no more than 10 µM; `CC(C)COc1ccc(Cl)cc1Cc1cccc(NC(=O)c2ccc(CN3CCCCC3)cc2)n1` [Example 47, N-[6-({5-Chloro-2-[(2-methylpropyl)oxy]phenyl}methyl)-2-pyridinyl]-4-(1-piperidinylmethyl)benzamidehydrochloride]: no more than 10 µM; `CC(C)COc1ccc(Cl)cc1Cc1cccc(NC(=O)c2ccc(CN3CCN(C)CC3)cc2)n1` [Example 48]: no more than 10 µM.
The same measure, in the same setting: next, `CC(C)COc1ccc(Cl)cc1Cc1cccc(-c2nc3ccc(CN4CCCCC4)cc3[nH]2)n1` [Example 50, 2-[6-({5-Chloro-2-[(2-methylpropyl)oxy]phenyl}methyl)-2-pyridinyl]-5-(1-piperidinylmethyl)-1H-benzimidazole hydrochloride]: no more than 10 µM; `CC(C)(C)OC(=O)Nc1cccc(Cc2cc(Cl)ccc2OCc2ccc(Cl)cc2F)n1` [Example 60, 1,1-Dimethylethyl {6-[(5-chloro-2-{[(4-chloro-2-fluoronhenyl)methyl]oxy}phenyl)methyl]-2-pyridinyl}carbamate]: no more than 10 µM.
The same measure, in the same setting: the figure for `NC(=O)c1cccc(Cc2cc(Cl)ccc2OCc2ccc(Cl)cc2F)n1` [Example 63, 6-[(5-Chloro-2-{[(4-chloro-2-fluorophenyl)methyl]oxy}phenyl)methyl]-2-pyridinecarboxamide] is no more than 10 µM.

Source of the values: patent publication US20090099177A1, “PYRIDYL COMPOUNDS” (priority 2006, published 2009).
